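A five-concentration, 48-hour dose response in 96-well plates underlies each endpoint, interpolated linearly between surrounding concentrations. At the GI50, growth is halved.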 The source made the active and inactive calls. Cut-off read from the data, not from the text of the source: active = GI50 up to about 1.1 µM and inactive = higher.
Legend:
Experiment in all cases: NCI tumour cell line growth inhibition, 48 h
SNB-75 = tested on: SNB-75
SNB-19 = tested on: SNB-19
SK-MEL-2 = tested on: SK-MEL-2
OVCAR-4 = tested on: OVCAR-4
HL-60 = tested on: HL-60
OVCAR-8 = tested on: OVCAR-8
SK-MEL-28 = tested on: SK-MEL-28
SR = tested on: SR
HOP-92 = tested on: HOP-92
SK-MEL-5 = tested on: SK-MEL-5
HCT-15 = tested on: HCT-15
IGROV-1 = tested on: IGROV-1
MOLT-4 = tested on: MOLT-4
NCI-H23 = tested on: NCI-H23
SK-OV-3 = tested on: SK-OV-3
M14 = tested on: M14
OVCAR-5 = tested on: OVCAR-5
MDA-MB-231 = tested on: MDA-MB-231
DU-145 = tested on: DU-145
ACHN = tested on: ACHN
NCI-H522 = tested on: NCI-H522
SW-620 = tested on: SW-620
RPMI-8226 = tested on: RPMI-8226
TK-10 = tested on: TK-10
U-251 = tested on: U-251
NCI-H460 = tested on: NCI-H460
PC-3 = tested on: PC-3
HT-29 = tested on: HT-29
K562 = tested on: K562
CAKI-1 = tested on: CAKI-1
NCI-H226 = tested on: NCI-H226
OVCAR-3 = tested on: OVCAR-3
MDA-N = tested on: MDA-N
UO-31 = tested on: UO-31
MDA-MB-435 = tested on: MDA-MB-435
SN12C = tested on: SN12C
UACC-257 = tested on: UACC-257
COLO 205 = tested on: COLO 205
HOP-62 = tested on: HOP-62
HCC 2998 = tested on: HCC 2998
Hs-578T = tested on: Hs-578T
A549 = tested on: A549
LOX IMVI = tested on: LOX IMVI
NCI/ADR-RES = tested on: NCI/ADR-RES
HCT-116 = tested on: HCT-116
SF-295 = tested on: SF-295
A498 = tested on: A498
T47D = tested on: T47D
KM12 = tested on: KM12
EKVX = tested on: EKVX
786-0 = tested on: 786-0
SF-539 = tested on: SF-539
CCRF-CEM = tested on: CCRF-CEM
SF-268 = tested on: SF-268
UACC-62 = tested on: UACC-62
RXF 393 = tested on: RXF 393
MCF7 = tested on: MCF7

COP(=O)(OC)/C(=C\C1=CN(C(c2ccccc2)(c2ccccc2)c2ccccc2)CN1)NC=O
GI50 (SNB-75): 20.2 µM (inactive)
GI50 (SNB-19): 20.1 µM (inactive)
GI50 (SK-MEL-2): 15.9 µM (inactive)
GI50 (OVCAR-4): 16.3 µM (inactive)
GI50 (HL-60): 18.9 µM (inactive)
GI50 (OVCAR-8): 21.3 µM (inactive)
GI50 (SK-MEL-28): 17.7 µM (inactive)
GI50 (SR): 14.2 µM (inactive)
GI50 (HOP-92): 10.3 µM (inactive)
GI50 (SK-MEL-5): 15.9 µM (inactive)
GI50 (HCT-15): 16.6 µM
GI50 (IGROV-1): 20.6 µM (inactive)
GI50 (MOLT-4): 12.8 µM (inactive)
GI50 (NCI-H23): 18.2 µM (inactive)
GI50 (SK-OV-3): 15.9 µM (inactive)
GI50 (M14): 19.9 µM (inactive)
GI50 (OVCAR-5): 17.8 µM (inactive)
GI50 (MDA-MB-231): 16.8 µM (inactive)
GI50 (DU-145): 20.2 µM (inactive)
GI50 (ACHN): 15.1 µM (inactive)
GI50 (NCI-H522): 17 µM (inactive)
GI50 (SW-620): 20.4 µM (inactive)
GI50 (RPMI-8226): 15.7 µM (inactive)
GI50 (TK-10): 21.2 µM (inactive)
GI50 (U-251): 16.3 µM (inactive)
GI50 (NCI-H460): 14 µM (inactive)
GI50 (PC-3): 6.44 µM (inactive)
GI50 (HT-29): 15 µM (inactive)
GI50 (K562): 25.3 µM (inactive)
GI50 (CAKI-1): 16.6 µM (inactive)
GI50 (NCI-H226): 21.2 µM (inactive)
GI50 (OVCAR-3): 16.1 µM (inactive)
GI50 (MDA-N): 15.1 µM (inactive)
GI50 (UO-31): 15 µM (inactive)
GI50 (MDA-MB-435): 11.1 µM (inactive)
GI50 (SN12C): 18.3 µM (inactive)
GI50 (UACC-257): 18.9 µM (inactive)
GI50 (COLO 205): 17.3 µM (inactive)
GI50 (HOP-62): 16.5 µM (inactive)
GI50 (HCC 2998): 21.1 µM (inactive)
GI50 (Hs-578T): 23.3 µM (inactive)
GI50 (A549): 14.2 µM (inactive)
GI50 (LOX IMVI): 12.8 µM (inactive)
GI50 (NCI/ADR-RES): 15.8 µM (inactive)
GI50 (HCT-116): 15.6 µM (inactive)
GI50 (SF-295): 16.4 µM (inactive)
GI50 (A498): 17.9 µM (inactive)
GI50 (T47D): 17.6 µM (inactive)

CN1N=C(c2ccncc2)OC1c1cccc(F)c1 (configuration not stated)
GI50 (SNB-75): > 100 µM (inactive)
GI50 (KM12): > 100 µM (inactive)
GI50 (SNB-19): > 100 µM (inactive)
GI50 (EKVX): > 100 µM (inactive)
GI50 (SK-MEL-2): > 100 µM (inactive)
GI50 (786-0): > 100 µM (inactive)
GI50 (OVCAR-4): > 100 µM (inactive)
GI50 (HL-60): > 100 µM (inactive)
GI50 (OVCAR-8): > 100 µM (inactive)
GI50 (SK-MEL-28): > 100 µM (inactive)
GI50 (SK-MEL-5): > 100 µM (inactive)
GI50 (HCT-15): > 100 µM
GI50 (IGROV-1): > 100 µM (inactive)
GI50 (MOLT-4): > 100 µM (inactive)
GI50 (SF-539): > 100 µM (inactive)
GI50 (NCI-H23): > 100 µM (inactive)
GI50 (SK-OV-3): > 100 µM (inactive)
GI50 (M14): > 100 µM (inactive)
GI50 (CCRF-CEM): > 100 µM (inactive)
GI50 (OVCAR-5): > 100 µM (inactive)
GI50 (SF-268): > 100 µM (inactive)
GI50 (MDA-MB-231): > 100 µM (inactive)
GI50 (DU-145): > 100 µM (inactive)
GI50 (ACHN): > 100 µM (inactive)
GI50 (NCI-H522): > 100 µM (inactive)
GI50 (SW-620): > 100 µM (inactive)
GI50 (RPMI-8226): > 100 µM (inactive)
GI50 (TK-10): > 100 µM (inactive)
GI50 (U-251): > 100 µM (inactive)
GI50 (NCI-H460): > 100 µM (inactive)
GI50 (PC-3): > 100 µM (inactive)
GI50 (UACC-62): > 100 µM (inactive)
GI50 (HT-29): > 100 µM (inactive)
GI50 (K562): > 100 µM (inactive)
GI50 (NCI-H226): 68.5 µM (inactive)
GI50 (OVCAR-3): > 100 µM (inactive)
GI50 (MDA-N): > 100 µM (inactive)
GI50 (UO-31): > 100 µM (inactive)
GI50 (MDA-MB-435): > 100 µM (inactive)
GI50 (SN12C): > 100 µM (inactive)
GI50 (UACC-257): > 100 µM (inactive)
GI50 (COLO 205): > 100 µM (inactive)
GI50 (RXF 393): > 100 µM (inactive)
GI50 (HOP-62): > 100 µM (inactive)
GI50 (HCC 2998): > 100 µM (inactive)
GI50 (Hs-578T): > 100 µM (inactive)
GI50 (A549): > 100 µM (inactive)
GI50 (LOX IMVI): > 100 µM (inactive)
GI50 (NCI/ADR-RES): > 100 µM (inactive)
GI50 (MCF7): > 100 µM (inactive)
GI50 (HCT-116): > 100 µM (inactive)
GI50 (SF-295): > 100 µM (inactive)
GI50 (A498): > 100 µM (inactive)
GI50 (T47D): > 100 µM (inactive)

Source: ChEMBL document CHEMBL1201862, “PubChem BioAssay data set” (2004)
